Legend:
[1] = literature, at the same doses; cited from earlier work
[2] = tested on: Human dermal fibroblasts (HDFn); experiment: Proliferation, MTS assay, fibroblasts; type: cell-based; conditions: 24 h or 48 h, 0.1-100 nM, FIG. 6
Experimental: (§1) Human dermal fibroblasts isolated from the skin of black neonates (HDFn) and human epidermal (HaCaT) keratinocytes cultured as described previously (Slominski A, et. al., (2013) The Journal of Clinical Endocrinology and Metabolism 98(2) E298-303; Slominski A T, et. al., (2011) Am J Physiol Cell Physiol 300(3) C526-41) were used for the experiments. Briefly, HDFn were plated onto 96-well plates at a confluence of about 70% in their seventh passage. Both HDFn and HaCaT keratinocytes were treated with 20S(OH)D3, 20S,25(OH)2D3, 20S,23S(OH)2D3, 20S,23R(OH)2D3 or 1α,25(OH)2D3 (Sigma-Aldrich, St. Louis, MO, USA) dissolved in ethanol and diluted in DMEM containing charcoal-treated serum, as previously described (Janjetovic Z, et. al., (2021) Endocrinology 162(1); Chaiprasongsuk A, et. al., (2020) Free Radic Biol Med 155 87-98; Slominski A T, et. al., (2011) Am J Physiol Cell Physiol 300(3) (2011) C526-41). The vehicle control comprised 0.1% ethanol. Proliferation was estimated using MTS (Promega, Madison, WI) assay. The number of viable cells was measured in 6 replicates.
(§2) Referring to FIG. 6A-D, inhibition of cell proliferation by 20S(OH)D3, 20S,25(OH)2D3, 20S,23S(OH)2D3 and 20S,23R(OH)2D3 in comparison to 1α,25(OH)2D3 is represented. […] Data are means±SD (n=6) and were analyzed using Student's t-test with p<0.05 (*), p<0.01 (**) or p<0.001 (***).

[3] = tested on: Human epidermal (HaCaT) keratinocytes; experiment: Proliferation, MTS assay, keratinocytes; type: cell-based; conditions: 24 h or 48 h, 0.1-100 nM, FIG. 6
Experimental: as §1, §2

LXRβ = molecular target: T1, LXRβ (Homo sapiens, UniProt P55055); experiment: LanthaScreen TR-FRET LXRβ coactivator assay; type: biochemical; conditions: TR-FRET ratio 520/495 nm, FIG. 8E-F
T1 construct: purchased Thermo Fisger Scientific, Inc
T1 sequence (P55055 222-460 limits assumed): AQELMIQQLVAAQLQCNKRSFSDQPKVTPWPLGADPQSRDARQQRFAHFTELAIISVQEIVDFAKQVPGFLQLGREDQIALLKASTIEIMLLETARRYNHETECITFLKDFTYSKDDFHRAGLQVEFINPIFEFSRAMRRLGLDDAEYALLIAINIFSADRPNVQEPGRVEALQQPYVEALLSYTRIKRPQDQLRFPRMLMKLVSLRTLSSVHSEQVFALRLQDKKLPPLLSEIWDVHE
Experimental: The bindings were performed using the LanthaScreen TR-FRET LXRa/0 Coactivator kit (Thermo Fisger Scientific, Inc., Waltham, MA) as described previously (Slominski A T, et. al., (2021) Sci Rep 11(1) 8002). Briefly, TR-FRET ratios were calculated by dividing the emission at 520 nm by that at 495 nm using Synergy neo2 (BioTek, Winooski, VT).

Human AhR = molecular target: T2, Human AhR (Homo sapiens, UniProt P35869); experiment: Human AhR Reporter Assay System (luciferase); type: cell-based; conditions: 23 h treatment
T2 construct: purchased Indigo Biosciences
T2 sequence (P35869 11-848): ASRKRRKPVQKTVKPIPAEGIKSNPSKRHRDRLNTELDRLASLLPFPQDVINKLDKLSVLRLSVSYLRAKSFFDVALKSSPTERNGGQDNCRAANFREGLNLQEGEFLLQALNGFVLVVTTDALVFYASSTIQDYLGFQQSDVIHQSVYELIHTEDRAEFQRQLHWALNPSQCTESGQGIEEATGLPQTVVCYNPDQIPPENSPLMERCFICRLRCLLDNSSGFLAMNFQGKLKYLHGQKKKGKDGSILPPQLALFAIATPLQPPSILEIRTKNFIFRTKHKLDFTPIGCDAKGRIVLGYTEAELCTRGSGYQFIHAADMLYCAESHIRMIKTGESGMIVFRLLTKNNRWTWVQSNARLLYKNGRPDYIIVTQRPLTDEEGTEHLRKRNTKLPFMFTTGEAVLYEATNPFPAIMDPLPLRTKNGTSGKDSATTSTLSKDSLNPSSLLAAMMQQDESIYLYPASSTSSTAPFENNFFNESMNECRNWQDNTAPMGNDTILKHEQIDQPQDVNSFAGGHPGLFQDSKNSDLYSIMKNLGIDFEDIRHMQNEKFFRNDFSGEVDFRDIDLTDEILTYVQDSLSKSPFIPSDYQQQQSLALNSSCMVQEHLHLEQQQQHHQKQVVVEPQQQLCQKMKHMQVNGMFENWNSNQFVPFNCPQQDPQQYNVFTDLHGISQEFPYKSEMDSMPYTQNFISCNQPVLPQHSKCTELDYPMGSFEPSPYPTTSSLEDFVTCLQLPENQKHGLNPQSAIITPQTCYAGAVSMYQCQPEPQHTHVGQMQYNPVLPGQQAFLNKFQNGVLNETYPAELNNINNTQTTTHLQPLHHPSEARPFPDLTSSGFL
Experimental: The binding of chemically synthesized secosteroids to AhR was tested using the Human AhR Reporter Assay System (Indigo Biosciences, State College, PA, USA) following the manufacturer's protocol and as detailed previously (Slominski A T, et. al., (2018) Int J Mol Sci 19(10)). Briefly, the cells including the luciferase reporter gene linked to an AhR-responsive promoter were treated with the compounds for 23 h and the luminescence signal was measured using Cytation 5 (Biotek, Winooski, VT, USA) after treatment with the detection substrate provided in the kit system.

Row | activity on AhR (Human AhR) | Structure (SMILES) | calcemic activity / toxicity [1] | inhibition of fibroblast proliferation [2] | inhibition of keratinocyte proliferation [3] | activity on LXRβ (LXRβ)
1 | – | C=C1CC[C@H](O)C/C1=C/C=C1\CCC[C@@]2(C)[C@H]1CC[C@@H]2[C@@](C)(O)CCCC(C)C [20S(OH)D3, (20S)-20-Hydroxyvitamin D3] | non-calcemic | inhibits fibroblast and keratinocyte proliferation | inhibits fibroblast and keratinocyte proliferation | –
2 | reverse agonist | C=C1CC[C@H](O)C/C1=C/C=C1\CCC[C@@]2(C)[C@H]1CC[C@@H]2[C@@](C)(O)C[C@H](O)CC(C)C [20S,23R(OH)2D3, (20S,23R)-20,23-Dihydroxyvitamin D3] | – | – | – | less efficient in activation of LXRβ than 20S,23S(OH)2D3
3 | agonistic activity | C=C1CC[C@H](O)C/C1=C/C=C1\CCC[C@@]2(C)[C@H]1CC[C@@H]2[C@@](C)(O)C[C@@H](O)CC(C)C [20S,23S(OH)2D3, (20S,23S)-20,23-Dihydroxyvitamin D3] | non-calcemic | – | – | better affinity with LXRβ
4 | – | C=C1CC[C@H](O)C/C1=C/C=C1\CCC[C@@]2(C)[C@H]1CC[C@@H]2[C@@](C)(O)CCCC(C)(C)O [20S,25(OH)2D3, (20S)-20,25-Dihydroxyvitamin D3] | – | inhibits fibroblast and keratinocyte proliferation | inhibits fibroblast and keratinocyte proliferation | –

Source: patent publication US20240327320A1, “NOVEL ROUTES OF CHEMICAL SYNTHESIS OF 20S(OH)D3, 20S,25(OH)2D3, 20S,23S(OH)2D3, AND 20S,23R(OH)2D3 AND THEIR MODIFICATION OF THE IMMUNE ACTIVITY OF PBMCS” (United State Government as represen ted by the Department …, priority 2023, published 2024)
